# Measured values taken from paper PMC12040169 (PLOS Biology, 2025).
# Assay: in vitro
# Details: human, hela cells, % viability
row,SMILES,"viability at 28.5 h, 10 µM"
1,CCC(c1ccc(F)cc1)n1cncc1-c1cnn(C)c1 (stereo not drawn) [CBK281883],95.7%
2,CN(C)CCN(C(=O)Cc1ccc2c(c1)CCC2)C1CCN(C)CC1 [CBK282182],84.6%
3,Cc1csc(C(Cc2ccsc2)NC(=O)c2c(C)noc2C)n1 (stereo not drawn) [CBK285045],102%
4,O=S(=O)(Nc1ncccn1)c1ccc(NC(=S)Nc2ccc3c(c2)OCO3)cc1 [CBK267046],89%
5,CC1CCCCN1C(=O)Cn1c(C2CCOCC2)cc2cccnc21 (stereo not drawn) [CBK284675],97.7%
6,CCc1c(-c2cccc(C(=O)N3CCS(=O)(=O)CC3)c2)cnn1C [CBK307487],75.3%
7,COc1cccc(N(CC(=O)Nc2ccccc2Cl)S(=O)(=O)c2ccc(C)cc2)c1 [CBK263791],93.4%
8,Cc1noc(C)c1S(=O)(=O)Nc1cc(C(F)(F)F)ccc1N1CCOCC1 [CBK062545],90.4%
9,CCOc1ccc(NC(=O)C(C)O)c(NC(=O)c2ccccc2Cl)c1 (stereo not drawn) [CBK269678],92.7%
10,COc1ccc([C@@]23CC[C@@H](NC(=O)Nc4ccc(Cl)cc4Cl)C[C@@H]2CN(C)C3)cc1OC [CBK085798T],88.5%
11,CCn1nc2c3ccccc3nc(C3CC3)n2c1=O [CBK284008],68.8%
12,CC(=O)N1CCc2c(nc(N(C)C)nc2NCCCOC(C)C)C1 [CBK306745],84.4%
13,Cc1cc(N2CCCC2)c(F)cc1CN1CCC(CO)C1 (stereo not drawn) [CBK282916],93.6%
14,O=C(CSc1ccccn1)Nc1ccc(CN2CCOCC2)cc1 [CBK306072],91%
15,COc1cccc(CNCCO)c1OCc1ccccc1F [CBK266594C],104%
16,O=C1C2CCCCN2C(=O)N1c1cccnc1 (stereo not drawn) [CBK162359],114%
17,CC(C)c1ccc(NC(=O)C2=NNC(=O)CC2)cc1 [CBK057421],96.5%
18,COc1ccc(Nc2nnc(-c3ccc(C(=O)NCCO)cc3)c3ccccc23)cc1 [CBK263735],90.5%
19,Cn1c(CN2CCCC2)nc2cc(NC(=O)C3CCCCC3)ccc21 [CBK307418],98.6%
20,COc1cc(CNc2cc(-c3cccc4oc5ccccc5c34)ncn2)cc(OC)c1OC [CBK091177],90.3%
21,O=C(Nc1ccccc1C(=O)O)c1cc(S(=O)(=O)Nc2cccc(F)c2)ccc1Cl [CBK263242],84.7%
22,CC(NC(=O)N1CCc2ccccc2C1)c1ccccc1 (stereo not drawn) [CBK155310],102%
23,CCOC(=O)c1c(C(C)(C)C)oc2ccc(OCC(=O)c3ccc(OC)cc3)cc12 [CBK264950],123%

row,SMILES,"viability at 28.5 h, 10 µM"
1,O=c1[nH]cc([C@H]2C[C@@H](O)[C@@H](CO)O2)c(=O)[nH]1 [CBK201158],95.4%
2,CN1CCN(C(=O)c2ccc(Cl)c(S(=O)(=O)N3CCCCC3)c2)CC1 [CBK262228],94.7%
3,COc1ccc(C2(C(=O)NCCN3CCCC3)CC2)cc1 [CBK149824],95.6%
4,CSc1nc2ncnc(N3CCC(O)CC3)c2s1 [CBK022082],84.4%
5,Cc1cccc(OCC(=O)Nc2ccc(-c3nc4ncccc4o3)cc2C)c1 [CBK269287],87.3%
6,CSc1nsc(NC(=O)Nc2ccccc2)n1 [CBK027286],97.9%
7,CC(C)C(=O)Nc1cc2cccnc2nc1-c1ccsc1 [CBK073649],87.8%
8,Cc1cc(OCC(O)CN2CCN(CCO)CC2)ccc1C(C)C (stereo not drawn) [CBK278254C],89%
9,CC(Oc1cccc2ccccc12)C(=O)N/N=C/c1ccc(Cl)cc1Cl (stereo not drawn) [CBK262218],97%
10,CC1CCC/C(=N\NC(=O)C2C3CCCCC32)C1 (stereo not drawn) [CBK025750],116%
11,COc1cc(OC)cc(C(=O)Nc2ncccc2OCCCC#N)c1 [CBK304899],88.3%
12,CCN(CC)S(=O)(=O)c1ccc(C)c(NS(=O)(=O)c2cc(C(=O)O)n(C)c2)c1 [CBK297782],99.5%
13,Nc1cc(=O)[nH]c(SCC(=O)N2CCc3ccccc32)n1 [CBK307424],94.4%
14,Cc1cc(NC(=O)c2cc([N+](=O)[O-])ccc2Cl)nc2c1c(=O)oc1ccccc12 [CBK291258],90.8%
15,CCCc1cc(C2CCCCCN2C(=O)c2c(C)noc2C)no1 (stereo not drawn) [CBK284919],87.7%
16,CCOc1ccc(NC(=O)NC(=O)C2CCN(C(C)=O)CC2)cc1 [CBK034852],119%
17,Cc1cc(O)n2nc(CC(=O)NCCCn3c(C)cccc3=O)nc2n1 [CBK306532],97.1%
18,CNC(=O)C1(Cc2ccc(-c3cccc(C)c3)cc2)CCN(C(=O)CC(C)C)CC1 [CBK285787],116%
19,Cc1c(C(C)NCC(O)COc2ccc(C#N)cc2)cnn1C (stereo not drawn) [CBK304881],97.5%
20,O=C1CC2(CCNCC2)Oc2c1ccc1ccccc21 [CBK282714],93%
21,CC(=O)N1c2ccc(-c3cn4ccc(C)cc4n3)cc2CC1C (stereo not drawn) [CBK285191],79.2%
22,COc1cccc2cc(C(=O)NCCN3CCOCC3)oc12 [CBK149807],101%
23,COc1ccc(OC)c(C2=NO[C@@](CC(=O)O)(C(=O)NC3CCCCC3)C2)c1 [CBK286672],92.1%

row,SMILES,"viability at 28.5 h, 10 µM"
1,Cc1noc(C)c1S(=O)(=O)Nc1nnn[nH]1 [CBK062378],112%
2,c1ccc(N2CCN(c3cccc(-c4ccco4)n3)CC2)nc1 [CBK037662],107%
3,O=C(c1ccc(-c2nccnc2NCCc2c[nH]c3ccccc23)cc1)N1CCOCC1 [CBK036891],95.6%
4,Cc1cccc(OCCNC(=O)CN2CCCC2c2cnn(C)c2)c1 (stereo not drawn) [CBK305826],81%
5,CC(C)n1c(=O)n(CC(=O)NC2CCCCC2)c2cccnc21 [CBK283696],99%
6,FC(F)(F)c1nc2ccccc2nc1SCc1ccco1 [CBK107201],85.9%
7,O=C(O)C1CCN(C(=O)CCn2ccc3cc(Br)ccc32)CC1 [CBK286617],105%
8,CCn1nccc1N1CCCC(NC(=O)CCc2ccccc2Cl)C1=O (stereo not drawn) [CBK305455],113%
9,COc1cc(F)ccc1-c1nc2ncccc2cc1NS(C)(=O)=O [CBK085692],89%
10,O=C(O)c1ccccc1-c1ccccc1C(=O)Nc1ccccc1-c1ccccc1 [CBK262843],84.4%
11,N=C(N)SCc1ccc(CSC(=N)N)cc1 [CBK278309C],84.5%
12,O=C(O)c1cccc2c1Sc1ccccc1O2 [CBK017129],90.8%
13,Cc1ccc(OCC(=O)Nc2ncc(C(F)(F)F)cc2Cl)c(Br)c1 [CBK266426],95.1%
14,Oc1nc(O)c2c(n1)NC1(CCC1)[C@@H]1C[C@@H](O)[C@@H](O)[C@H]21 [CBK303249],91.4%
15,Cc1ccc(NC(=O)C2CCCCC2C(=O)O)cc1Cl (stereo not drawn) [CBK286938],99.9%
16,COc1cccc2ncn(Cc3n[nH]c(C)n3)c(=O)c12 [CBK306938],89.7%
17,O=S(=O)(NCC(Sc1ccc(F)cc1)c1ccccc1)c1ccc(Cl)cc1 (stereo not drawn) [CBK266306],96.8%
18,Oc1noc(O)c1-c1ncc(C(F)(F)F)cc1Cl [CBK007439],91.1%
19,Cc1ccnc(NS(=O)(=O)c2ccc(NS(C)(=O)=O)cc2)n1 [CBK261552],100%
20,O=c1[nH]c(N2CCC3(CC2)OCCO3)nc2c(-c3ccccc3Cl)csc12 [CBK291128],114%
21,Cc1ccccc1CC(=O)NCC(c1ccccc1Cl)N1CCOCC1 (stereo not drawn) [CBK304564],85.3%
22,CCOC(=O)c1cnc2c(C(F)(F)F)cccc2c1NCCCN1CCOCC1 [CBK266012],92.4%
23,Cn1nc(-c2ccc(F)cc2)cc1[C@H]1CN2CC[C@H]1C[C@@H]2CNC(=O)N1CCOCC1 [CBK289108],116%

row,SMILES,"viability at 28.5 h, 10 µM"
1,CN(C)S(=O)(=O)c1ccc(Cl)c(C(=O)Nc2cccc(C(=O)O)c2)c1 [CBK265727],90.9%
2,COc1ccc(-c2cc(C(=O)Nc3nc4ccccc4[nH]3)cnc2-c2ccc(F)cc2)cn1 [CBK036617],98.6%
3,CCCc1c(C)nc2c(OC)cccc2c1SCCC(=O)O [CBK263890],122%
4,CN(C)c1ncc(Br)cc1C(=O)NCCNS(=O)(=O)c1ccccc1 [CBK076504],89.4%
5,NC(=O)c1ccc(NC(=O)N2CCCCC2CO)cc1 (stereo not drawn) [CBK156185],83%
6,Cn1nccc1C(=O)N1CCC2(C/C=C/COc3ccccc3C(=O)NC[C@@H](Cc3ccccc3)NC2=O)CC1 [CBK292183],99.8%
7,C=CCN1CCC(C(=O)NC(C)c2ccc(OC)c(OC)c2)CC1 (stereo not drawn) [CBK148924],91.1%
8,O=C(c1ccccc1F)N1CCCC1c1n[nH]cc1-c1ccncc1 (stereo not drawn) [CBK283428],87.7%
9,FC(F)(F)c1nc2ccccc2nc1SCCc1ccccn1 [CBK103731],109%
10,CCOC(=O)c1cccc(NS(=O)(=O)c2cccc3cccnc23)c1 [CBK034345],57.2%
11,COc1ncc(-c2ccc(NCC(C)C)nc2)c(OC)n1 [CBK036934],116%
12,Cc1sc(NC(=O)c2ccccc2)c(C(Nc2ccccn2)c2ccc(F)cc2)c1C (stereo not drawn) [CBK296957],89.7%
13,CS(=O)(=O)c1ccc(-n2nnnc2CN2CCC3(CCCCC3)C2)cc1 [CBK306183],91.1%
14,COc1ccccc1-c1cc(C(=O)NCCCN2CCOCC2)c2ccccc2n1 [CBK267780],83.8%
15,CC(C)(C)NC(=O)CN1CCC(c2ccccc2F)CC1 [CBK283499],92.1%
16,CCOc1ccsc1C(=O)Nc1c(OC)cc(F)cc1OC1CCNCC1 [CBK050292T],94.3%
17,Cc1cc(C)c(C)c(S(=O)(=O)N(CCO)CCO)c1C [CBK269082],90.5%
18,O=C(CCCN1C(=O)c2ccccc2C1=O)Oc1ccc(-c2ccccc2)cc1 [CBK267144],98.1%
19,O=C(c1n[nH]c2c1CCC2)N1CCC(c2ccccc2)C1 (stereo not drawn) [CBK281851],87.9%
20,CC(C)CNc1cc(Cl)c(S(=O)(=O)NCC(C)C)cc1C(=O)O [CBK263405],93.5%

# Same assay, conditions: human, hela cells, % viability, bulk resorufin, single well
row,SMILES,"viability at 28.5 h, 10 µM"
1,CCOC(=O)C1(c2ccccc2)CCN(C(=O)CCC(=O)OC)CC1 [CBK132198],79.8%
